Measurements: publication PMC3402541, “Guanidylation and Tail Effects in Cationic Antimicrobial Lipopeptoids” (PLoS ONE, 2012)
Converted amounts (≈) assume the structure as drawn. Where a SMILES comes first, the peptide text is derived from it. [ ]: non-standard residue; d: D form. The star is where a group is joined. Myristoyl = CCCCCCCCCCCCCC(=O)*; Nlys = NCCCCNCC(=O)O

What was measured:
E. faecium ATCC 27270 = assay type: cell-based; settings: ATCC 27270, 24 h
Procedure: (§1) Antimicrobial activity of the purified lipopeptoids was determined without replication against a panel of clinically relevant and standard reference bacterial strains according to CLSI macrobroth standards. Stock solutions at 512 µg/mL were prepared in water, with DMSO as needed, and testing was performed in glass test tubes using Muller-Hinton broth and bacteria adjusted to 5 × 10^5 CFU/mL. Bacteria were incubated with the lipopeptoid of interest for 24 hr at 37°C prior to reading.
(§2) The bacteria Staphylococcus aureus ATCC 29213, methicillin-resistant S. aureus ATCC 33592, Staphylococcus epidermidis ATCC 14990, Enterococcus faecalis ATCC 29212, E. faecium ATCC 27270, Streptococcus pneumoniae ATCC 49619, Escherichia coli ATCC 25922, Pseudomonas aeruginosa ATCC 27853, and Klebsiella pneumoniae ATCC 13883 were acquired from the American Type Culture Collection (ATCC) and used as quality controls. The clinical strains methicillin-resistant S. epidermidis (MRSE) CAN-ICU 61589, E. coli CAN-ICU 61714, E. coli CAN-ICU 63074, P. aeruginosa CAN-ICU 62308, Stenotrophomonas maltophilia CAN-ICU 62584, Acinetobacter baumannii CAN-ICU 63169 were obtained from hospitals across Canada as part of the CAN-ICU studies, while methicillin-susceptible S. epidermidis (MSSE) 81388 was obtained from the 2008 CANWARD study.
(§3) After subculturing the relevant bacteria twice from frozen stock, in vitro activities of the antimicrobials were determined by macrobroth dilution methodology in accordance with the Clinical and Laboratory Standards Institute (CLSI) guidelines (3). The MICs were determined using glass test tubes (2 mL/tube) containing doubling antimicrobial dilutions of cation adjusted Mueller-Hinton broth inoculated to achieve a final concentration of approximately 5 x 10^5 CFU/mL, incubated in ambient air for 24 hr prior to reading. Colony counts were performed periodically to confirm inocula. The ATCC organisms […] ATCC 49619, Staphylococcus aureus ATCC 29213, Enterococcus faecalis ATCC 29212, Escherichia coli ATCC 25922, and Pseudomonas aeruginosa ATCC 27853 were used as quality control and to allow easy comparison to previously tested antimicrobials. Each test in this series was performed without replication. In our experience with cationic amphiphiles the results are accurate to within a single doubling.

E. faecalis ATCC 29212 = assay type: cell-based, Enterococcus faecalis; settings: ATCC 29212, 24 h
Procedure: as §1, §2, §3

S.aureus ATCC 29213 = assay type: cell-based, Staphylococcus aureus; settings: ATCC 29213, 24 h
Procedure: as §1, §2, §3

MSSE 81388 CANWARD 2008 = assay type: cell-based, methicillin-susceptible S. epidermidis; settings: 24 h
Procedure: as §1, §2, §3

[1] = test system: S. maltophilia CAN-ICU 62584; assay type: cell-based, Stenotrophomonas maltophilia; settings: CAN-ICU 62584, 24 h
Procedure: as §1, §2, §3

P.aeruginosa ATCC 27853 = assay type: cell-based, Pseudomonas aeruginosa; settings: ATCC 27853, 24 h
Procedure: as §1, §2, §3

[2] = test system: P.aeruginosa CAN-ICU 62308; assay type: cell-based, Pseudomonas aeruginosa; settings: CAN-ICU 62308, 24 h
Procedure: as §1, §2, §3

MRSA ATCC 33592 = assay type: cell-based, methicillin-resistant S. aureus; settings: ATCC 33592, 24 h
Procedure: as §1, §2, §3

E.coli CAN-ICU 63074 = assay type: cell-based, Escherichia coli; settings: CAN-ICU 63074, 24 h
Procedure: as §1, §2, §3

E.coli ATCC 25922 = assay type: cell-based, Escherichia coli; settings: ATCC 25922, 24 h
Procedure: as §1, §2, §3

E.coli CAN-ICU 61714 = assay type: cell-based, Escherichia coli; settings: CAN-ICU 61714, 24 h
Procedure: as §1, §2, §3

MRSE CAN-ICU 61589 = assay type: cell-based, methicillin-resistant S. epidermidis; settings: CAN-ICU 61589, 24 h
Procedure: as §1, §2, §3

S.pneumoniae ATCC 49619 = assay type: cell-based, Streptococcus pneumoniae; settings: ATCC 49619, 24 h
Procedure: as §1, §2, §3

K.pneumoniae ATCC 13883 = assay type: cell-based, Klebsiella pneumoniae; settings: ATCC 13883, 24 h
Procedure: as §1, §2, §3

[3] = test system: A. baumannii CAN-ICU 63169; assay type: cell-based, Acinetobacter baumannii; settings: CAN-ICU 63169, 24 h
Procedure: as §1, §2, §3

ovine erythrocytes = assay: Haemolytic assay; assay type: cell-based, sheep; settings: ovine erythrocytes in Tris buffered saline, 30 minutes, absorbance of supernatant at 540 nm
Procedure: Mammalian cell toxicity was determined by measuring lysis of ovine erythrocytes, a standard model for human cell toxicity. Cells were prewashed with Tris buffered saline and then incubated with a variety of lipopeptoid concentrations for 30 minutes. Following centrifugation, lysis was evaluated by testing the absorbance of the solution at 540 nm, with 0.5% NH4OH used as a positive control.
Toxicity to mammalian cells was determined using a sheep red blood cell (erythrocyte) haemolytic assay (4). Erythrocytes were washed and resuspended in Tris buffered saline prior to use, at a concentration of 1.46 - 4.5 x 10^9 cells/mL (on average 3.08 x 10^9 cells/mL). The cell suspension was diluted with varying concentrations of antimicrobials, from 50 μg/mL to 1 mg/mL and incubated for thirty minutes (final erythrocyte concentration 4.08 x 10^8 cells/mL). The samples were centrifuged following treatment and the absorbance of the supernatant was measured at 540 nm. A solution of 0.5% […] was used as a positive control, with normal buffered solution as the negative control. The toxicity was assessed as a function of percent haemolysis.

| SMILES | MIC E. faecium (E. faecium ATCC 27270) [µg/mL] | MIC E. faecium in the presence of 4% bovine serum albumin (E. faecium ATCC 27270) [µg/mL] | MIC E. faecalis (E. faecalis ATCC 29212) [µg/mL] | MIC E. faecalis in the presence of 4% bovine serum albumin (E. faecalis ATCC 29212) [µg/mL] | MIC S.aureus (S.aureus ATCC 29213) [µg/mL] | MIC S.aureus in the presence of 4% bovine serum albumin (S.aureus ATCC 29213) [µg/mL] | MIC MSSE (MSSE 81388 CANWARD 2008) [µg/mL] | MIC MSSE in the presence of 4% bovine serum albumin (MSSE 81388 CANWARD 2008) [µg/mL] | MIC S. maltophilia [1] [µg/mL] | MIC S. maltophilia in the presence of 4% bovine serum albumin [1] [µg/mL] | MIC P.aeruginosa (P.aeruginosa ATCC 27853) [µg/mL] | MIC P.aeruginosa in the presence of 4% bovine serum albumin (P.aeruginosa ATCC 27853) [µg/mL] | MIC P.aeruginosa [2] [µg/mL] | MIC P.aeruginosa in the presence of 4% bovine serum albumin [2] [µg/mL] | MIC MRSA (MRSA ATCC 33592) [µg/mL] | MIC MRSA in the presence of 4% bovine serum albumin (MRSA ATCC 33592) [µg/mL] | MIC E.coli (E.coli CAN-ICU 63074) [µg/mL] | MIC E.coli in the presence of 4% bovine serum albumin (E.coli CAN-ICU 63074) [µg/mL] | MIC E.coli (E.coli ATCC 25922) [µg/mL] | MIC E.coli in the presence of 4% bovine serum albumin (E.coli ATCC 25922) [µg/mL] | other results |
| --- | --- | --- | --- | --- | --- | --- | --- | --- | --- | --- | --- | --- | --- | --- | --- | --- | --- | --- | --- | --- | --- |
| CCCCCCCCCCCCCCCC(=O)N(CCCCN)CC(=O)N(CCCCN)CC(=O)N(CCCCN)CC(N)=O [C16-NlysNlysNlys] | 32 (≈ 50 µM) | >512 | 32 (≈ 50 µM) | >512 | 16 (≈ 25 µM) | 512 | 8 (≈ 12.5 µM) | 512 | 256 (≈ 400 µM) | >512 | 128 (≈ 200 µM) | >512 | 128 (≈ 200 µM) | >512 | 32 (≈ 50 µM) | >512 | 64 (≈ 100 µM) | >512 | 32 (≈ 50 µM) | >512 | MIC E.coli (E.coli CAN-ICU 61714): 64 µg/mL (≈ 100 µM); MIC E.coli in the presence of 4% bovine serum albumin (E.coli CAN-ICU 61714): >512 µg/mL; MIC MRSE (MRSE CAN-ICU 61589): 8 µg/mL (≈ 12.5 µM); MIC MRSE in the presence of 4% bovine serum albumin (MRSE CAN-ICU 61589): 512 µg/mL; MIC S.pneumoniae (S.pneumoniae ATCC 49619): 128 µg/mL (≈ 200 µM); MIC S.pneumoniae in the presence of 4% bovine serum albumin (S.pneumoniae ATCC 49619): 512 µg/mL; MIC K.pneumoniae (K.pneumoniae ATCC 13883): 128 µg/mL (≈ 200 µM); MIC K.pneumoniae in the presence of 4% bovine serum albumin (K.pneumoniae ATCC 13883): >512 µg/mL; MIC A. baumannii [3]: 256 µg/mL (≈ 400 µM); MIC A. baumannii in the presence of 4% bovine serum albumin [3]: >512 µg/mL; Percent haemolysis at 100µg/mL of compound (ovine erythrocytes): 67.69% |
| CCCCCCCCCCCCCC(=O)N(CCCCN)CC(=O)NCC(=O)N(CCCCN)CC(N)=O [C14-NlysGNlys] (Myristoyl-[Nlys]-Gly-[Nlys]-NH2) | 64 (≈ 118 µM) | 512 | 64 (≈ 118 µM) | >512 | 32 (≈ 59.2 µM) | 512 | 16 (≈ 29.6 µM) | 512 | 512 (≈ 947 µM) | >512 | 256 (≈ 473 µM) | >512 | 512 (≈ 947 µM) | >512 | 32 (≈ 59.2 µM) | 512 | 128 (≈ 237 µM) | >512 | 128 (≈ 237 µM) | >512 | MIC E.coli (E.coli CAN-ICU 61714): 128 µg/mL (≈ 237 µM); MIC E.coli in the presence of 4% bovine serum albumin (E.coli CAN-ICU 61714): >512 µg/mL; MIC MRSE (MRSE CAN-ICU 61589): 32 µg/mL (≈ 59.2 µM); MIC MRSE in the presence of 4% bovine serum albumin (MRSE CAN-ICU 61589): 512 µg/mL; MIC S.pneumoniae (S.pneumoniae ATCC 49619): 256 µg/mL (≈ 473 µM); MIC S.pneumoniae in the presence of 4% bovine serum albumin (S.pneumoniae ATCC 49619): >512 µg/mL; MIC K.pneumoniae (K.pneumoniae ATCC 13883): 256 µg/mL (≈ 473 µM); MIC K.pneumoniae in the presence of 4% bovine serum albumin (K.pneumoniae ATCC 13883): >512 µg/mL; MIC A. baumannii [3]: 256 µg/mL (≈ 473 µM); MIC A. baumannii in the presence of 4% bovine serum albumin [3]: >512 µg/mL; Percent haemolysis at 100µg/mL of compound (ovine erythrocytes): 2.90% |
| CCCCCCCCCCC(=O)N(CCCCNC(=N)N)CC(=O)N(CCCCNC(=N)N)CC(=O)N(CCCCNC(=N)N)CC(N)=O [C11-NhargNhargNharg] | 256 (≈ 368 µM) | 512 | 512 (≈ 736 µM) | >512 | 128 (≈ 184 µM) | 512 | 64 (≈ 92 µM) | 512 | >512 | >512 | >512 | >512 | >512 | >512 | 128 (≈ 184 µM) | 512 | >512 | >512 | >512 | >512 | MIC E.coli (E.coli CAN-ICU 61714): >512 µg/mL; MIC E.coli in the presence of 4% bovine serum albumin (E.coli CAN-ICU 61714): >512 µg/mL; MIC MRSE (MRSE CAN-ICU 61589): 256 µg/mL (≈ 368 µM); MIC MRSE in the presence of 4% bovine serum albumin (MRSE CAN-ICU 61589): 512 µg/mL; MIC S.pneumoniae (S.pneumoniae ATCC 49619): 512 µg/mL (≈ 736 µM); MIC S.pneumoniae in the presence of 4% bovine serum albumin (S.pneumoniae ATCC 49619): >512 µg/mL; MIC K.pneumoniae (K.pneumoniae ATCC 13883): >512 µg/mL; MIC K.pneumoniae in the presence of 4% bovine serum albumin (K.pneumoniae ATCC 13883): >512 µg/mL; MIC A. baumannii [3]: >512 µg/mL; MIC A. baumannii in the presence of 4% bovine serum albumin [3]: >512 µg/mL |
